The values below come from BindingDB's records for doi:10.1016/j.chembiol.2003.11.012 (Universit&Agrave, 2003).

Experiment in all cases: Inhibition Assay
Holding throughout (conditions): pH 7; 20 °C

Assay [1] has as its target Bifunctional dihydrofolate reductase-thymidylate synthase (Leishmania major, UniProt P07382). The protocol: (§1) The inhibition assay pattern for all of the compounds was determined by steady-state kinetic analysis of the dependence of the TS enzyme activity on folate concentration at various concentration.
The target of assay [2] is T1, Thymidylate synthase (Pneumocystis carinii, UniProt P13100).
T1 sequence (P13100 whole entry): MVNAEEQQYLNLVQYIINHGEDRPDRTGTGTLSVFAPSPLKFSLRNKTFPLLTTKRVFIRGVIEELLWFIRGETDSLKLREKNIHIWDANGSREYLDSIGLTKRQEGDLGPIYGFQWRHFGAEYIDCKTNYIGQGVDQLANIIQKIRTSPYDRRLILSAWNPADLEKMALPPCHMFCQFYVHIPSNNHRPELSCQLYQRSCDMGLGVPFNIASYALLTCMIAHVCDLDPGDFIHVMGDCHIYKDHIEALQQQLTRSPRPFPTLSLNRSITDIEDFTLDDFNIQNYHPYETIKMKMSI
On the procedure: as §1

Assay [3] addresses T2, Thymidylate synthase (Lacticaseibacillus casei, UniProt P00469).
T2 sequence (P00469 whole entry): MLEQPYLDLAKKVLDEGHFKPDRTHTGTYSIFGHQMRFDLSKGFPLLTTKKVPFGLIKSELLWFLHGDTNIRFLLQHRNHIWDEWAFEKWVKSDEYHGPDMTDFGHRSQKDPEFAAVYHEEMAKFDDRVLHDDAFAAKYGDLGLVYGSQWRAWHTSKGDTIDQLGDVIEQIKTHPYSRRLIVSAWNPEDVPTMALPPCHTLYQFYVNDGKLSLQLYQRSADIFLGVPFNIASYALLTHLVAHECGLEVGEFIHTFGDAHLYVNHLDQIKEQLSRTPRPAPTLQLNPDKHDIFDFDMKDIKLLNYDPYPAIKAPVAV
On the procedure:
as §1

Assay [4] addresses Thymidylate synthase (Homo sapiens, UniProt P04818). On the procedure:
as §1

Assay [5] deals with Thymidylate synthase (Escherichia coli (strain K12), UniProt P0A884). On the procedure: as §1
Chain of Thymidylate synthase (Escherichia coli (strain K12), UniProt P0A884) (P0A884 whole entry): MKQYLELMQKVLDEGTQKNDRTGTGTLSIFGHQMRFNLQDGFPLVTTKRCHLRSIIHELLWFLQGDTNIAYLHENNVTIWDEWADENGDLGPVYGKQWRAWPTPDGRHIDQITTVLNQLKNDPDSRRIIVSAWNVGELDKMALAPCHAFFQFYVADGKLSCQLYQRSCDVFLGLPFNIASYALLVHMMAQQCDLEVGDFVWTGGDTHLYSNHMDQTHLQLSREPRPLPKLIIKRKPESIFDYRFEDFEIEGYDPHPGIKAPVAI

Structures are written as SMILES. Where only a bound is given, the exact number is not on record here.

Chain of Bifunctional dihydrofolate reductase-thymidylate synthase (P07382 whole entry): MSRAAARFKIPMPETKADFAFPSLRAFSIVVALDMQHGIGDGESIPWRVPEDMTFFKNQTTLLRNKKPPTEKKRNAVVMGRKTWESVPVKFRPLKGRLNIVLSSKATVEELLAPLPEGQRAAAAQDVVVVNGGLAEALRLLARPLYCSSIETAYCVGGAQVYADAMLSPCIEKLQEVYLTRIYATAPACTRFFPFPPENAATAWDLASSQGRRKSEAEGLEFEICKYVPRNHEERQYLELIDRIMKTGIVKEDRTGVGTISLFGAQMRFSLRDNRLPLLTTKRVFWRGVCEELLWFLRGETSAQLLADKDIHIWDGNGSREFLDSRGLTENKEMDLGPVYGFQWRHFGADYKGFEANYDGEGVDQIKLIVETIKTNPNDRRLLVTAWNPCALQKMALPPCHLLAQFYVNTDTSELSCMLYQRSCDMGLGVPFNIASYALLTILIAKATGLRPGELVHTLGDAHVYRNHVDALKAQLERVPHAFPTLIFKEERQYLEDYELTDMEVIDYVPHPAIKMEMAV
Chain of Thymidylate synthase (Homo sapiens, UniProt P04818) (P04818 whole entry): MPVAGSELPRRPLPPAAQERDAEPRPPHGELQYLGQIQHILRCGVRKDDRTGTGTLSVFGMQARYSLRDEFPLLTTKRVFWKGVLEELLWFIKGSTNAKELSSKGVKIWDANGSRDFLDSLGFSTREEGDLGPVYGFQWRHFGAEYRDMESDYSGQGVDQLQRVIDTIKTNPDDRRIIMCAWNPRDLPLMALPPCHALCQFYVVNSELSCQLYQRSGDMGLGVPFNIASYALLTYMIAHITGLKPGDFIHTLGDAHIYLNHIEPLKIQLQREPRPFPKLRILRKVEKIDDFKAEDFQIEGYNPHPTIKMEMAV

What is called Ki is the equilibrium dissociation constant of an inhibitor or competing ligand from its target. A higher Ki goes with a looser hold on the target. As to `O=C1OC(c2ccc(O)c(Cl)c2)(c2ccc(O)c(Cl)c2)c2cccc3cccc1c23`, the Ki in assay [1] was more than 1080 µM.

Compound `C#CCN(Cc1ccc2nc(N)[nH]c(=O)c2c1)c1ccc(C(=O)N[C@@H](CCC(=O)O)C(=O)O)cc1` registered an inhibitory constant (Ki) in assay [1] of 0.08 µM.

As to `O=C1OC(c2ccc(O)c(F)c2)(c2ccc(O)c(F)c2)c2cccc3cccc1c23` [Phenolnaphthalein derivative, 1], the Ki in assay [1] was more than 1780 µM.

As for `O=C1OC(c2ccc(O)c(Br)c2)(c2ccc(O)c(Br)c2)c2ccc(Cl)c3cccc1c23` [Phenolnaphthalein derivative, 2], the inhibition constant (Ki) is 28 µM on Thymidylate synthase [2]; 0.8 µM on Thymidylate synthase [3]; more than 245 µM on Thymidylate synthase [4]; 4.1 µM at Thymidylate synthase [5]; more than 1080 µM in assay [1].

For the compound `O=C1OC(c2ccc(O)c(F)c2)(c2ccc(O)c(F)c2)c2ccc(Cl)c3cccc1c23` [Phenolnaphthalein derivative, 3], the Ki on Thymidylate synthase [2] is 22 µM; at Thymidylate synthase [3] it was 1.8 µM; on Thymidylate synthase [4], more than 245 µM; at Thymidylate synthase [5], 1.1 µM; in assay [1] it was more than 1080 µM.

For the compound `O=C1OC(c2ccc(O)c(Br)c2)(c2ccc(O)c(Br)c2)c2c1ccc1ccccc21` [Phenolnaphthalein derivative, 4], the Ki on Thymidylate synthase [2] was more than 132 µM; at Thymidylate synthase [4], more than 132 µM; at Thymidylate synthase [5], 0.9 µM; in assay [1], 63 µM.

`O=C1OC(c2cc(Br)c(O)c(Br)c2)(c2cc(Br)c(O)c(Br)c2)c2c1ccc1ccccc21` [Phenolnaphthalein derivative, 5]: the Ki was 32.7 µM on Thymidylate synthase [2], more than 245 µM at Thymidylate synthase [4] and 41 µM in assay [1].
